Data on 19 molecules can be found in ChEMBL document CHEMBL4680117, “Discovery of 3,3'-pyrrolidinyl-spirooxindoles as cardioprotectant prohibitin ligands” (Eur J Med Chem, 2020).

Assay [1] concerns H9c2. Briefly: Cardioprotective activity against rat H9c2 cells assessed as inhibition of doxorubicin-induced ROS production at 1 nM preincubated for 14 hrs followed by loading with DCFDA dye for 45 mins and later exposed to doxorubicin for 3 hrs by DCF-DA probe based fluorescence assay (reference value: 0%). Type of assay: functional. Particulars: H9c2, 17.75 h, time 1065 min.

Assay [2] deals with H9c2. Briefly: Cardioprotective activity against rat H9c2 cells assessed as inhibition of doxorubicin-induced cytotoxicity by measuring increase in cell suvival at 0.3 nM preincubated for 10 hrs followed by doxorubicin treatment and measured after 14 hrs by cQuant based analysis (reference value: 0%). Type of assay: functional. On the set-up: scale not given: the % may be the effect or the level left. Particulars: time 24 hrs.

Assay [3] relates to H9c2. Briefly: Cardioprotective activity against rat H9c2 cells assessed as inhibition of doxorubicin-induced cytotoxicity by measuring increase in cell suvival at 1 nM preincubated for 10 hrs followed by doxorubicin treatment and measured after 14 hrs by cQuant based analysis (reference value: 0%). Type of assay: functional. On the set-up: scale not given: the % may be the effect or the level left. The settings on record: time 24 hrs.

Assay [4] has as its system H9c2. As to the kind of experiment: Cardioprotective activity against rat H9c2 cells assessed as inhibition of doxorubicin-induced ROS production at 0.3 nM preincubated for 14 hrs followed by loading with DCFDA dye for 45 mins and later exposed to doxorubicin for 3 hrs by DCF-DA probe based fluorescence assay (reference value: 0%). The format is functional. Particulars: H9c2, 17.75 h, time 1065 min.

Assay [5] relates to H9c2. Briefly: Binding affinity to PHB1 in rat H9c2 cells incubated for overnight by AffiGel 10 beads pull down based western blot analysis. Type of assay: cell-based. A general note: Immunoblotting shows a protein as a band on a membrane.
In assay [6] the test system is H9c2. As to the kind of experiment: Binding affinity to PHB2 in rat H9c2 cells incubated for overnight by AffiGel 10 beads pull down based western blot analysis. Type of assay: cell-based.
Assay [7] has as its system H9c2. As to the kind of experiment: Cardioprotective activity against rat H9c2 cells assessed as inhibition of doxorubicin-induced cytotoxicity at 10 to 30 nM preincubated for 10 hrs followed by doxorubicin treatment and measured after 14 hrs by cQuant based analysis. The format is functional, cell-based. Particulars: dose 10-30 nM, time 24.0 hrs.
Assay [8] concerns H9c2. Briefly: Cardioprotective activity against rat H9c2 cells assessed as inhibition of doxorubicin-induced ROS production at 10 to 30 nM preincubated for 14 hrs followed by loading with DCFDA dye for 45 mins and later exposed to doxorubicin for 3 hrs by DCF-DA probe based fluorescence assay. Type of assay: functional, cell-based. Particulars: dose 10-30 nM, time 1065.0 min.

The subject of a further assay is MCF7. Briefly: Cytotoxicity against human MCF7 cells. The format is functional, cell-based.
Assay [9] deals with H9c2. Briefly: Binding affinity to PHB1/2 in rat H9c2 cells assessed as induction of STAT3 phosphorylation at 10 nM incubated for 10 to 40 mins by western blot analysis. The format is cell-based. Particulars: time 10-40 min.

pEC50: −log10 of the molar value. Calls of active or inactive are those of the source. The calls are words filed in the database; no cut-off is given here.

By inhibition is commonly meant the drop in the measured response relative to a control, in per cent. On to `CN1C(=O)[C@@]2(c3ccccc31)[C@H](c1ccccc1)N(C)C(=O)[C@@H]2O`, for which the inhibition at 0.001 µM in the assay with H9c2 [1] came to 2.1%. For the same molecule, the Activity in the assay on H9c2 [2] turned out to be 1.9%; in the assay with H9c2 [3], 2.9%. The inhibition at 0.0003 µM with H9c2 [4] was 3.2%.
Taken in the same sequence, the figures for `CCCCN1CC[C@@]2(C(=O)Nc3ccccc32)[C@@H]1c1ccccc1` were 12.5%, 0.9%, 5.7% and 6.2%.
In the case of `Cc1ccc2c(c1)NC(=O)C21CCNC1c1ccccc1` (stereo not given), in the assay with H9c2 [1], the inhibition at 0.001 µM came to 3.2%. Further, the Activity with H9c2 [2] is on record as 0.3%; in the assay with H9c2 [3], 2.6%. The inhibition at 0.0003 µM with H9c2 [4] came out at 0%.
On to `CN(C)C(=O)CN1CC[C@@]2(C(=O)Nc3ccccc32)[C@@H]1c1ccccc1`, for which the inhibition at 0.001 µM in the assay with H9c2 [1] was 9.4%. For the same molecule, the Activity with H9c2 [2] is 1.4%; in the assay on H9c2 [3], 0.2%. Moreover, in the assay on H9c2 [4], the inhibition at 0.0003 µM worked out at 0%.
Consider `CCCN1CC[C@@]2(C(=O)Nc3ccccc32)[C@@H]1c1ccccc1`, for which the inhibition at 0.001 µM in the assay on H9c2 [1] was found to be 6.2%. Further, the Activity in the assay with H9c2 [2] is given as 1.3%; with H9c2 [3] it was 0.8%. Moreover, the inhibition at 0.0003 µM in the assay on H9c2 [4] was determined as 3.1%.
`O=C(CCC(=O)ON1C(=O)CCC1=O)NCCNC(=O)CNCCOCCOCCOCCN1CCC2(C(=O)Nc3ccccc32)C1c1ccccc1` (stereo not given): the outcome with H9c2 [5] and in the assay with H9c2 [6] was Active.
With `C=CCN1CC[C@@]2(C(=O)Nc3ccccc32)[C@@H]1c1ccccc1`, the inhibition at 0.001 µM with H9c2 [1] was 20.6%. Besides, the result in the assay on H9c2 [7] and in the assay on H9c2 [8] was Active. The Activity in the assay with H9c2 [2] amounted to 4.6%; with H9c2 [3], 11.6%. In addition, in the assay with H9c2 [4], the inhibition at 0.0003 µM is 12.7%.
On to `CCN1CC[C@@]2(C(=O)Nc3ccccc32)[C@@H]1c1ccccc1`, for which, in the assay with H9c2 [1], the inhibition at 0.001 µM turned out to be 12.5%. For the same molecule, the Activity in the assay with H9c2 [2] is given as 6%; in the assay on H9c2 [3] it was 7.4%. For the same molecule, in the assay with H9c2 [4], the inhibition at 0.0003 µM was determined as 9.4%.
A word on the pEC50: it is the EC50 on a negative log10 scale, so that one unit is a factor of ten. Regarding `O=C1Nc2ccccc2[C@]12CCNC2c1ccccc1` (stereo not given in full), the inhibition at 0.001 µM with H9c2 [1] worked out at 18.8%. The Activity in the assay with H9c2 [2] is recorded as 7.7%; in the assay with H9c2 [3] it was 11.3%. The same molecule showed a pEC50 with MCF7 of 5.46. In addition, the inhibition at 0.0003 µM in the assay with H9c2 [4] was 12.5%.
With `O=C(CCC(=O)ON1C(=O)CCC1=O)NCCNC(=O)CNCCOCCOCCOCCN1C(=O)C2(CCNC2c2ccccc2)c2ccccc21` (stereo not given), the outcome in the assay on H9c2 [5] and in the assay with H9c2 [6] was Active.
For `O=C1Nc2ccccc2[C@]12CCN(C1CCCC1)[C@H]2c1ccccc1`, in the assay on H9c2 [1], the inhibition at 0.001 µM is 12.5%. The Activity stood at 2.6% with H9c2 [2] and 0.2% with H9c2 [3]. Besides, the inhibition at 0.0003 µM in the assay with H9c2 [4] amounted to 0%.
For `O=C(CN1CC[C@@]2(C(=O)Nc3ccccc32)[C@@H]1c1ccccc1)N1CCOCC1`, the inhibition at 0.001 µM in the assay with H9c2 [1] is 6.2%. Also, the Activity with H9c2 [2] and in the assay with H9c2 [3] was 0.3% in each case. The inhibition at 0.0003 µM with H9c2 [4] worked out at 0%.
Turning to `COC(=O)[C@H]1C[C@]2(C(=O)Nc3ccccc32)[C@@H](c2ccccc2)N1`, the inhibition at 0.001 µM in the assay on H9c2 [1] stood at 9.4%. The figures for the Activity in the assay on H9c2 [2] and in the assay with H9c2 [3] were 4% and 6.4%, respectively. The inhibition at 0.0003 µM in the assay on H9c2 [4] was 3.1%.
As for `CC(C)N1CC[C@@]2(C(=O)Nc3ccccc32)[C@@H]1c1ccccc1`, the inhibition at 0.001 µM with H9c2 [1] was 20.5%. In addition, the result with H9c2 [7], in the assay on H9c2 [8] and in the assay on H9c2 [9] was Active. Also, the Activity in the assay with H9c2 [2] is 6.7%; in the assay on H9c2 [3] it was 10.7%. Besides, in the assay on H9c2 [4], the inhibition at 0.0003 µM is 14.3%.
Consider `O=C1Nc2cc(Br)ccc2C12CCNC2c1ccccc1` (stereo not given), for which, in the assay on H9c2 [1], the inhibition at 0.001 µM worked out at 6.5%. Besides, the Activity with H9c2 [2] was determined as 1.1%; with H9c2 [3], 6.5%. The inhibition at 0.0003 µM in the assay with H9c2 [4] turned out to be 3.2%.
Consider `COC(=O)[C@H]1C[C@@]2(C(=O)Nc3ccccc32)[C@H](c2ccccc2)N1`, for which the inhibition at 0.001 µM in the assay on H9c2 [1] was determined as 2.7%. Further, the Activity worked out at 2.9% in the assay on H9c2 [2] and 7.1% with H9c2 [3]. Moreover, the inhibition at 0.0003 µM with H9c2 [4] was 2.9%.
`O=C1N[C@@H](c2ccccc2)[C@]2(C(=O)Nc3ccccc32)[C@H]1O`: the inhibition at 0.001 µM in the assay with H9c2 [1] was 21.9%. The results for the Activity in the assay with H9c2 [2] and with H9c2 [3] were 3% and 5.8%, respectively. The inhibition at 0.0003 µM in the assay on H9c2 [4] turned out to be 6.25%.
`CN1CC[C@@]2(C(=O)Nc3ccccc32)[C@@H]1c1ccccc1`: the inhibition at 0.001 µM with H9c2 [1] came out at 15.6%. Besides, the figures for the Activity in the assay with H9c2 [2] and in the assay on H9c2 [3] were 5.4% and 7.6%, respectively. Besides, the inhibition at 0.0003 µM in the assay on H9c2 [4] came out at 9.4%.
Consider `COc1cc(OC)c2c(c1)O[C@@]1(c3ccc(Br)cc3)[C@H](c3ccccc3)C[C@@H](O)[C@@]21O`, for which, in the assay with H9c2 [1], the inhibition at 0.001 µM was found to be 15.9%. Also, the result in the assay with H9c2 [7] and in the assay on H9c2 [8] was Active. Besides, the Activity in the assay with H9c2 [2] was 3.5%; in the assay with H9c2 [3], 9.7%. For the same molecule, in the assay on H9c2 [4], the inhibition at 0.0003 µM worked out at 9.5%.
